Experimental data reported in patent US20240216359A1, “TREATMENT OF NEUROLOGICAL DISORDERS” (GMP BIOTECHNOLOGY LIMITED, priority 2021, published 2024).
Counter-ions that a name gives are not always drawn. Like-named read-outs stand apart in the source and are kept apart here.

Key:
[1] = 25° C.; cited from earlier work
[2] = adverse event rate, comparator; cited from earlier work
[3] = Pilot double-blind crossover study in subjects with erectile dysfunction principally of psychogenic origin; type: in vivo, human
From the text: The primary efficacy parameter was each subject's assessment of the quality of the erection (graded on a 4-point scale). Secondary endpoints included frequency of erection, time from dosing to erection, duration of erection, and efficacy index (EI) for subjects achieving erections. Safety was primarily assessed via adverse events but cardiovascular effects were also investigated by monitoring blood pressure, heart rates, and percent oxygen saturation, prior to and following dosing. The integrity of the nasal mucosa of both nostrils was also evaluated prior to dosing, in the event of nasal symptoms, and at the end of each treatment visit.
Subjects made a total of six visits to the site, an initial screening and qualification visit, three treatment visits in Part 1, and two treatment visits in Part 2. Eligible subjects were randomized to a treatment sequence for Part I after the initial screening visit. Approximately 2 months later, subjects were randomized to a treatment sequence for Part 2.
At each treatment visit, a single dose of study treatment was administered. Efficacy was measured by means of ED questionnaires, which were completed by each subject. Following dosing, all subjects viewed sexually explicit videotapes and magazines for approximately 60 minutes. At the end of this period, the questionnaires were completed and patients were asked to rate the quality of the erection using a 4-point scale. The primary efficacy variable was the subject's global rating of erection, measured on a scale of 1 to 4: 1=increase in size but not hard; 2=hard, but not hard enough for vaginal penetration; 3=hard enough for vaginal penetration (but not completely hard); 4=completely hard.
Safety was measured by monitoring the subjects' blood pressure, heart rate and percent oxygen saturation (by pulse oximetry) before and after dosing (approximately 90 minutes after dosing commenced). In addition, the integrity of the subject's nasal mucosa was assessed prior to, and at the end of treatment. Information on adverse events was collected throughout the period of the study.
Drugs, Doses, and Regimens: At each treatment visit, subjects received one dose of study treatment.

[4] = cited from earlier work

O=C(O)CC(O)(CC(=O)O)C(=O)O [Citric Acid]
pKa1 [1]: 3.128
pKa2 [1]: 4.761
pKa3 [1]: 6.396

CN1CC(=O)N2[C@H](c3ccc4c(c3)OCO4)c3[nH]c4ccccc4c3C[C@@H]2C1=O [Cialis]
Dizziness [2]: 6.2%
Dyspepsia [2]: 7.7%
Flushing [2]: 4.2%
Headache [2]: 13.9%

CCCc1nn(C)c2c(=O)[nH]c(-c3cc(S(=O)(=O)N4CCN(C)CC4)ccc3OCC)nc12 [Viagra]
difference in effectiveness in initiating erections between treatments and placebo ([3]; apomorphine HCl 0.25, 0.50, 1.0 mg, Viagra 50 mg): no statistically significant difference
serious adverse events ([3]; human, in vivo): no serious adverse events
subjects who achieved a satisfactory erection (as reported by the subject) ([3]; single dose): around 30%
efficacy by Global Self Assessment Scores (grade 3 or 4) ([3]; single dose, apomorphine 0.25-1.0 mg intranasal, Viagra 50 mg): 67%

CN1CCc2cccc3c2[C@H]1Cc1ccc(O)c(O)c1-3 [Apomorphine Hydrochloride]
volume of water in which one gram dissolves ([4]; water at 80° C.): about 20 ml
volume of water in which one gram dissolves ([4]; water): 50 mL
